Results published in BindingDB's records for patent US12371430 (Merck Patent, 2025).

Molecular target: ATR-interacting protein/Serine/threonine-protein kinase ATR (Homo sapiens, UniProt Q13535)
Assay: ATR/ATRIP Kinase Assay
Procedure: The ATR/ATRIP enzymatic assay is performed as a TR-FRET-(HTRF™, Cisbio Bioassays) based 384-well assay. In a first step, purified human recombinant ATR/ATRIP (human ATR, full length, GenBank ID: NM_001184.3, and human ATRIP, full length, GenBank ID AF451323.1, co-expressed in a mammalian cell line) is incubated in assay buffer for 15 minutes at 22° C. with test compound at different concentrations or without test compound (as a negative control). The assay buffer contains 25 mM HEPES pH 8.0, 10 mM Mg(CH3COO)2, 1 mM MnCl2, 0.1% BSA, 0.01% Brij 35, and 5 mM dithiothreitol (DTT). An Echo 555 (Labcyte) is used for dispensing of compound solutions. […] The generation of phosphorylated p53 as a result of the ATR mediated reaction in the presence of ATP is detected by using specific antibodies [labeled with the fluorophores europium (Eu) as donor and d2 as acceptor (Cisbio Bioassays)] enabling FRET. […] Following signal development for 2 h the plates are analyzed in an EnVision (PerkinElmer) microplate reader using the TRF mode with laser excitation. Upon excitation of the donor europium at 340 nm the emitted fluorescence light of the acceptor d2 at 665 nm as well as from the donor Eu at 615 nm are measured. The amount of phosphorylated p53 is directly proportional to the ratio of the amounts of emitted light i.e. the ratio of the relative fluorescence units (rfu) at 665 nm and 615 nm. […]

Chain of ATR-interacting protein/Serine/threonine-protein kinase ATR (Q8WXE1 whole entry): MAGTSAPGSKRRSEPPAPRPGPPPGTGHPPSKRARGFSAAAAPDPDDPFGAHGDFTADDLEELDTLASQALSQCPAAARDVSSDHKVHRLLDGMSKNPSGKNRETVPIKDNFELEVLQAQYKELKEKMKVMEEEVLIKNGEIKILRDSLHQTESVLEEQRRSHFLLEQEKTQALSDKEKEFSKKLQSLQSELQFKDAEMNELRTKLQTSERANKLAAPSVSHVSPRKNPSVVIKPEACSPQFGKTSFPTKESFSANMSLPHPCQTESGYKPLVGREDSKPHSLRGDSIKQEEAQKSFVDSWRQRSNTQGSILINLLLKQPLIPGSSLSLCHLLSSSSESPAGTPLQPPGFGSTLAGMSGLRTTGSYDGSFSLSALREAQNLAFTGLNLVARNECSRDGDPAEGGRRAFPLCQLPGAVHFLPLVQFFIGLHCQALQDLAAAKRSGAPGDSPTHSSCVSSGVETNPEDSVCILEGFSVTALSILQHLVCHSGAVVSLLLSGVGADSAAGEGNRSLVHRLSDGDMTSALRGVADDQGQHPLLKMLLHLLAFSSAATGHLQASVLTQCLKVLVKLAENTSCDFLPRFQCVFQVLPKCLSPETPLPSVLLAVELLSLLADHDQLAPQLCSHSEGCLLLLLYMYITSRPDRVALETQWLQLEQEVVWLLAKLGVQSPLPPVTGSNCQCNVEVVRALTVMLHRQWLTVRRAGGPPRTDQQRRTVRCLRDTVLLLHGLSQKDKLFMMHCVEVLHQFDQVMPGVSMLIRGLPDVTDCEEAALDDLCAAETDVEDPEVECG
Chain of ATR-interacting protein/Serine/threonine-protein kinase ATR (Q13535 whole entry): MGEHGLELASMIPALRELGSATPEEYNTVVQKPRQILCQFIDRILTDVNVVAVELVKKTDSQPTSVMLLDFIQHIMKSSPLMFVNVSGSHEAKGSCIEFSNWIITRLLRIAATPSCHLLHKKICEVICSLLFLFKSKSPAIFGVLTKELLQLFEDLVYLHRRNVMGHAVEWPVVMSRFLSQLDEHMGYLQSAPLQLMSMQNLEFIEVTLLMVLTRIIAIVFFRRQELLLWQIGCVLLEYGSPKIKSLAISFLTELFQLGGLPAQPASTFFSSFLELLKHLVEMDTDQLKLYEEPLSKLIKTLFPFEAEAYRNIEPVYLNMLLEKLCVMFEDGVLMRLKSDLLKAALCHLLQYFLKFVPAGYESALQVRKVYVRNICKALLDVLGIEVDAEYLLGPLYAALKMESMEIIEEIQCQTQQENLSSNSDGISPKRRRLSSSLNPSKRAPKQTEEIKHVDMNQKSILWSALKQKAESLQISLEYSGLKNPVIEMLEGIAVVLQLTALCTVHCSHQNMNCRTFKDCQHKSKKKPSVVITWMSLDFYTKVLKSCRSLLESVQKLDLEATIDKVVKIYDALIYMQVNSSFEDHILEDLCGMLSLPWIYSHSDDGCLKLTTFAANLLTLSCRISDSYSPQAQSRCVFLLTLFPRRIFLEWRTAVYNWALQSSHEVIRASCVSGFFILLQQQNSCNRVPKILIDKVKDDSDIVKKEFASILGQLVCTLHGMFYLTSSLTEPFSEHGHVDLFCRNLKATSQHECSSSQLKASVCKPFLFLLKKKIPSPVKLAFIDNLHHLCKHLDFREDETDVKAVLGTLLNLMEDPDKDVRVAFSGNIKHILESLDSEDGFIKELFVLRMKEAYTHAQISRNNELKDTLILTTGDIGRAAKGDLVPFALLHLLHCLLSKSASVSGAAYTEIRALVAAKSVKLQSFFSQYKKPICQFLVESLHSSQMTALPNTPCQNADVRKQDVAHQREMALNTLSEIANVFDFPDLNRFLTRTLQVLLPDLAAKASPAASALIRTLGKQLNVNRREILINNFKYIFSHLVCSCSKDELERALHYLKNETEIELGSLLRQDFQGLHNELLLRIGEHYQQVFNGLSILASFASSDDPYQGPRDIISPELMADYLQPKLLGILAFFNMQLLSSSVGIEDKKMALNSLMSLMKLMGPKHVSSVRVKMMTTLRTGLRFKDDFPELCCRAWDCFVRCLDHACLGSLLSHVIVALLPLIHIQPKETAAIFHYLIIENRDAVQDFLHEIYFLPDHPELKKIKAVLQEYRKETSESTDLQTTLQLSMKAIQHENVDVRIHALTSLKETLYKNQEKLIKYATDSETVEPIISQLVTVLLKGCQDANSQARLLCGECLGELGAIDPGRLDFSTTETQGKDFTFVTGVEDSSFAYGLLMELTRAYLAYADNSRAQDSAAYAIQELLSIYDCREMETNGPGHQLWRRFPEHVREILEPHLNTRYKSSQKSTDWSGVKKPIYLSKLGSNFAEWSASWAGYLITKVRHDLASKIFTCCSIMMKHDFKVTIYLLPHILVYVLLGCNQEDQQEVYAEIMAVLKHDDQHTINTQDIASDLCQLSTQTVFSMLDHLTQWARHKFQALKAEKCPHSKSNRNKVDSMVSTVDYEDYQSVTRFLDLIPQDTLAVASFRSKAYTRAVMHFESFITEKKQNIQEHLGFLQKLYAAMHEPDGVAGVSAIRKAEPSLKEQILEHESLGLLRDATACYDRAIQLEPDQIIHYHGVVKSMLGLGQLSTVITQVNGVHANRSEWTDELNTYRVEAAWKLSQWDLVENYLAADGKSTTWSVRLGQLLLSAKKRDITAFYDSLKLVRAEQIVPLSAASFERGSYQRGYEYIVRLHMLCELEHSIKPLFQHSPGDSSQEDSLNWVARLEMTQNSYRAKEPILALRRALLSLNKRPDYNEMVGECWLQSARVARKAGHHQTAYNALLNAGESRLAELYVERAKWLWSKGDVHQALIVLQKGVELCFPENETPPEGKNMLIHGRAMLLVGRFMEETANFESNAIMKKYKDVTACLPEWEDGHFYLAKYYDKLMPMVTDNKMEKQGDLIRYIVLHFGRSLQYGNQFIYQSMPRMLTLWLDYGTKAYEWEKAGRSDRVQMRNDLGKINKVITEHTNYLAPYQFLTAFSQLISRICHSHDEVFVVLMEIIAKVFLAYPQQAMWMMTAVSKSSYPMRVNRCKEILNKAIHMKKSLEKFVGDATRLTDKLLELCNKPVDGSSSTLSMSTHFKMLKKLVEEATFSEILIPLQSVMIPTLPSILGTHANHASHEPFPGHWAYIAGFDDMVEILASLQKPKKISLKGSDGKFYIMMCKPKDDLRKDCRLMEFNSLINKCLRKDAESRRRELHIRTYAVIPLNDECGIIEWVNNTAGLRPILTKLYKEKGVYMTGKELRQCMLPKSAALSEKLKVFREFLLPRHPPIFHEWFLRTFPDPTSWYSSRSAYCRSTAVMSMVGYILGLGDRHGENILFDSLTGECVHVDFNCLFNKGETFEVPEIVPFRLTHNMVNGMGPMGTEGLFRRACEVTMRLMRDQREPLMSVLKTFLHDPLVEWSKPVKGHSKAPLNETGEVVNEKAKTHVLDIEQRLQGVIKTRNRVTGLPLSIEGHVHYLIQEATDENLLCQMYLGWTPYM

IC50: 800 pM
Structure (SMILES): C[C@@H]1COCCN1c1cc(C2CCS(=O)(=O)CC2)c2c(n1)c(-c1ccn[nH]1)nn2C [US12371430, Compound 82]
